Earlier results in US20260297106A1, “SPIROCYCLIC SUBSTITUTED OXOISOINDOLINYL PIPERIDINE-2,6-DIONE COMPOUND” (Bristol-Myers Squibb Company, priority 2023, published 2026).

Legend:
[1] = system: highly immunogenic syngeneic tumors; conditions: engineered mouse models; cited from earlier work
[2] = system: T and NK cell; conditions: preclinical and clinical studies; cited from earlier work

For Nc1cccc2c1CN(C1CCC(=O)NC1=O)C2=O (centres unmarked) [lenalidomide], the antitumor immune responses [1] is listed as “modestly increase antitumor immune responses” and the “T and NK cell functions” value [2] is listed as “augment T and NK cell functions”.
